From patent US7803764B2, “Amphipathic glycopeptides” (The Arizona Board of Regents on Behalf of the University of …, priority 2004, dated 2010)
“Also recorded” adds a separate entry of the source.

Experiments:
[1] = helicity by NMR αCH chemical shift index; format: physicochemical
Protocol: NMR Spectroscopy. All NMR spectra were recorded on a Bruker DRX600 600 MHz spectrometer. Glycopeptide concentration for the NMR experiments varied from 2-3 mM. The glycopeptides were prepared in TFE-water solution by dissolving the peptide in 0.6 ml solution of a premixed 30% TFE-water mixture. The micelle samples were prepared by dissolving the glycopeptide and 100 equivalent of perdeuterated SDS in 0.6 ml of H2O/D2O (9:1 ratio by volume). Bicelles were produced from deuterated phospholipids. The zwitterionic bicelles were made by mixing the short chain phospholipid dihexanoyl-sn-glycero-3-phosphatidylcholine-d22 (DHPC) and the long chain 1,2-dimyristoyl-sn-glycero-3-phosphatidylcholine-d54 (DMPC) in the molar ratio of 2:1 in H2O. The […] were prepared by substituting 10 mol % of 1,2-dimyristoyl-sn-glycero-3-phospho-1-glycerol-d54 (DMPG) for DMPC. The glycopeptide to bicelle ratio was 1:25. After the glycopeptide was added to the bicelle solution, the system was submitted to a series o f three freeze/thaw/slight vortex shaking cycles. The pH of the each sample was adjusted to 4.5 by using DCl or NaOD as necessary. TSP (3-(trimethylsilyl)-d4-propionic acid) was added as an internal standard. The experiments in F3CCD2OD/H2O mixtures were at 293 K and for experiments in micelles/bicelles were at 298 or 311 K. Two-dimensional double quantum filtered correlation (DQF-COSY), rotating-frame Overhauser enhancement^56 (ROESY), Nuclear Overhauser enhancement^57 (NOESY), and total correlation spectra^58 (TOCSY) were acquired using standard pulse sequences and processed using XWINNMR (Bruker Inc) and FELIX2000 (Accelrys Inc, San Diego, Calif.), Mixing times for TOCSY spectra were either 80 or 100 ms. Mixing times for ROESY spectra were 150 or 250 ms, and for NOESY spectra were 200 or 300 ms. All experiments were 750 increments in t1, 16/32/64 scans each, 1.5 s relaxation delay, size 2 or 4K, and the spectral processing was with shifted sine bell window multiplications in both dimensions.
αCH Chemical Shift Index. […] At this point there is no accepted random coil αCH values for glycosylated serine, CSI values for this position are uncertain. The conformational shift values for all solvents were obtained using the random coil values described by Wright and co-workers.^72 Although, these reference shifts were obtained at pH=5.0 at 4.2° C., they appear to be very insensitive to the conditions, as very small deviations (±0.04) were observed when random coil values are obtained at pH=7.0 at 35° C. by Wuthrich and co-workers.^68 The quantification of secondary structure based on αCH chemical shifts is neglected in the literature because various contributions cannot be strictly accounted for, such as electrostatic effects, ring current shifts, and other magnetic anisotropies. However, it is possible to make qualitative comparison of helical content between closely related (glyco)peptides. Since the 3rd generation glycopeptides differ by only one amino acid at position 6, the helical content was obtained based on the αCH chemical shift values (Table 3). The method described by Gierasch and co-workers^69a was used. First, the average conformational shift was calculated for each glycopeptide by adding all upfield shifts in the helical regions and dividing by the total number of peptide bonds. Then, to obtain the overall helical content for each glycopeptide, the average conformational shift was divided by 0.35 ppm, which was assigned for 100% helicity. Since, there are no random coil values available for β-Alanine and glycosylated serine residues, they were not included in the calculation. The helicogenic Aib residue lacks an α-proton, and there was no correction included in the calculation for the helicity provided by Aib residue. The helical content obtained by this method correlated with the helical content obtained by CD. […]

[2] = blood-brain barrier uptake / penetration; conditions: mice
[3] = Plasmon-waveguide resonance (PWR) binding to lipid bilayer; conditions: egg PC bilayer, 25° C., read-out: dissociation constant KD for lipid bilayer
Protocol: Plasmon-waveguide resonance (PWR) spectroscopy. The PWR instrument used for these experiments was Aviv Beta prototype version device obtained from Proterion Corp. (Piscataway, N.J.) having a spectral resolution of 1 millidegree. Self-assembled so lid-supported lipid membranes were prepared according to the method used for the formation of freely suspended lipid bilayers.^62 This involves spreading a small amount of lipid solution across an orifice in a Teflon sheet that separates the thin dielectric film (SiO2) from the aqueous phase. The hydrophilic surface of hydrated SiO2 attracts the polar groups of the lipid molecules, thus inducing an initial orientation of the lipid molecules, with the hydrocarbon chains pointing toward the droplet of excess lipid solution. The next steps of bilayer formation, induced by adding aqueous buffer to the sample compartment of the PWR cell, involve a thinning process and the formation of a plateau-Gibbs border of lipid solution that anchors the membrane to the Teflon spacer. In the present experiments, the lipid films were formed from a solution containing 5 mg/ml egg phosphatidylcholine (PC) in squalene/butanol/methanol (0.05:9.5:0.5, v/v). […] Aliquots of the glycosylated peptides, dissolved in deionized water, were injected stepwise in the PWR cell sample and the signal monitored until equilibrium was reached (PWR signal steady). […]

δ opioid receptor = δ opioid receptor (Homo sapiens, UniProt P41143); assay: opioid receptor binding, δ receptor
Chain of δ opioid receptor (P41143 whole entry): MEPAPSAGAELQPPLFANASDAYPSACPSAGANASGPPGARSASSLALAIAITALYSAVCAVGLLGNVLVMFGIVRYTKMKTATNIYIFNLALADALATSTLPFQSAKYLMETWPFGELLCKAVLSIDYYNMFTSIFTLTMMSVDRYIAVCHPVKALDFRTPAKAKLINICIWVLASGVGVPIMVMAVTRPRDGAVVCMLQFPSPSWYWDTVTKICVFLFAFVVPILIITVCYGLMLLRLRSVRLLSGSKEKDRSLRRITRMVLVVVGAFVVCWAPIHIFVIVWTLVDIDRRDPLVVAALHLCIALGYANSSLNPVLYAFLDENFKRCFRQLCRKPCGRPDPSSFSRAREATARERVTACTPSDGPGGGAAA

μ opioid receptor = μ opioid receptor (Homo sapiens, UniProt P35372); assay: opioid receptor binding, μ receptor
Chain of μ opioid receptor (P35372 whole entry): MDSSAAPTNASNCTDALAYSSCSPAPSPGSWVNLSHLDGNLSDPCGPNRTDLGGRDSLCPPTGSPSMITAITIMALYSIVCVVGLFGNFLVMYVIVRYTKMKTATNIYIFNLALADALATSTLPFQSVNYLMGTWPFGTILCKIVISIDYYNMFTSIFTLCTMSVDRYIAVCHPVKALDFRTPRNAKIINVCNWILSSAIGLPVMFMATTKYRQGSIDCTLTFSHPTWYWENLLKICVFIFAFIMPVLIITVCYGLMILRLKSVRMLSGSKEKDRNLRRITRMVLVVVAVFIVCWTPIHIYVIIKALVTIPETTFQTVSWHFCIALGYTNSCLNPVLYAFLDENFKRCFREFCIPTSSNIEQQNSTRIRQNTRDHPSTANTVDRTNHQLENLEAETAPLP

[4] = in vivo antinociception after i.c.v. administration; design: species or system mice; conditions: i.c.v., mice, antinociception
[5] = helicity by circular dichroism; format: physicochemical
Protocol: Circular Dichroism. All of the circular dichroism experiments were carried out on Aviv Associates model 60DS using an Endcal Model RTE4DD water circulator as a temperature-control vehicle. The instrument was calibrated by using d-10-camphorsulphonic acid. The spectra were recorded between 200 and 250 nm by using the continuous mode with a 1.5 nm bandwidth, a three second response and a scan step of 0.5 nm in a cell with a path length of 0.1 cm. Three or five scans were accumulated and averaged for each spectrum. Glycopeptide stock solutions were prepared by weighing the required amount, using Cahn/Ventron Instruments Model 21 automatic analytical electrobalance, to make 1 mL of a 0.5-1.0 mM solution and the pH was adjusted to the desired value. Samples were prepared by diluting the stock solution to 70-80 μM. All observed spectra were baseline-subtracted and smoothed by adjacent average of 5 points using Microcal Origin Ver. 5.0 software (Microcal Software Inc, USA). The molar ellipticities were determined using the formula [θ]=[θ]obs·(MRW)/10·l·C, where [θ]obs observed ellipticity in millidegrees, MRW is the mean residue weight, l is the cell path length in centimeters and C is the glycopeptide concentration in mg/mL. The percent α-helicity was determined by using the formula % helix=[θ]n→π*/−40,000 (1−2.5/n)·100, where n represents the number of amide bonds (including the C-terminal amide) in the glycopeptide and [θ]n→π** is molar ellipticity of n→π* transition band at 222 nm.^55
Conformational Analysis by CD. Circular dichroism (CD) is a powerful and simple tool for identifying secondary structure in both peptides and proteins.^64 All the peptides were subjected to CD analysis in H2O, TFE-H2O mixtures, SDS micelles and phospholipid bicelles. In H2O, a negative band near 200 nm is observed that arises from the π→π* electronic transition and is typical of random coil peptides. […] This behavior is explained as nascent helices.^65 In these nascent helices, helix CD signals could be induced by the addition of TFE.^66 All the glycopeptides gave an increased helix CD signal in TFE. The percentage of helicity increases as TFE concentration increases, but reached a maximum at 30% TFE. The increase in helicity in TFE can be attributed to decreased competition by H2O for hydrogen bonding to the backbone amides. […] In the presence of SDS micelles and anionic bicelles, the band at 200 nm underwent a red shift (higher value) and an additional shoulder appears around 222 nm as a result of the n→π* transition. […] The negative maxima at 222 nm (n→π* transition band) is used to calculate the helical content of polypeptides and proteins. The accepted value for a peptide that is 100% helical is approximately −35,000. It was observed that changes in amplitude of the bands up to 30% depend on length of helix.^67 The amplitude increases as α-helical chain length increases. Therefore, one has to consider the importance of chain-length dependence of the α-helix CD in the quantitative treatment of helix content in proteins and polypeptides. The percentage of helicity is independent of SDS concentration and pH (data not shown). In the presence of zwitterionic bicelles all of the glycopeptides yielded CD spectra similar to that observed in H2O, but anionic bicelles forced them to become more helical. The intensities of the [θ]π→π* band and the [θ]n→π* band are expected to be almost equal for a perfect α-helical peptide. […] A modest blue shift and reduced intensity for the [θ]n→π* transition bands are observed for all the glycopeptides in TFE. […] The glycopeptides 9 (Pro/Glc) and 12 (Pro/Lactose), which differ only by the sugar moiety attached, adopt perfect helices in the presence of SDS micelles and in anionic bicelles. The disaccharide increased the percentage of helicity in all the solvents, relative to the monosaccharide. […] It is remarkable to note that a single amino acid mutation at position 6 produced profound changes in the CD spectra. […]

Compound: CC(C)C[C@H](NC(=O)[C@H](CO[C@@H]1O[C@H](CO)[C@@H](O)[C@H](O)[C@H]1O)NC(=O)[C@H](CCCCN)NC(=O)[C@H](CC(C)C)NC(=O)[C@H](C)NC(=O)[C@H](CCCCN)NC(=O)[C@H](CCC(=O)O)NC(=O)C(C)(C)NC(=O)[C@H](CC(C)C)NC(=O)[C@H](CC(N)=O)NC(=O)CNC(=O)CNC(=O)[C@H](CC(C)C)NC(=O)[C@H](Cc1ccccc1)NC(=O)CNC(=O)[C@H](NC(=O)[C@@H](N)Cc1ccc(O)cc1)[C@H](C)O)C(N)=O (relative stereo) [Glycopeptide 11, YtGFLGGNLBEKALKS*L]
- % α-helicity by NMR ([1]; solvent H2O): 19%
- % α-helicity by NMR ([1]; solvent SDS micelles): 39%
- % α-helicity by NMR ([1]; solvent TFE): 28%
- BBB uptake [2]: 0.002 microliters per min per gram of cortex
- blood brain barrier penetration (in words) [2]: did not; also recorded: low BBB penetration rates
- Kd [3]: 30000 nM
- IC50 (δ opioid receptor): 32.5 nM
- IC50 (μ opioid receptor): 53 nM
- A50 i.c.v. [4]: 0.030 nmol
- % α-helicity by CD ([5]; solvent Bicelle A (anionic bicelles)): 17%
- % α-helicity by CD ([5]; solvent H2O): >1%
- % α-helicity by CD ([5]; solvent SDS micelles): 17%
- % α-helicity by CD ([5]; solvent TFE): 18%
